Measurements: PMC3914206

How the values were obtained:
[1] = molecular target: T1, panel of 442 kinases (Homo sapiens, UniProt Q9H1R3); assay type: binding; settings: Compound Concentration 10 µM
T1 construct: purchased KINOMEscan
From the text: (§1) We assessed the selectivity of members of this scaffold using the KINOMEscan methodology across a near comprehensive panel of 442 kinases [[18,27]].

[2] = molecular target: T2, panel of 442 kinases (Homo sapiens, UniProt Q8TBX8); assay type: binding; settings: Compound Concentration 10 µM
T2 construct: purchased KINOMEscan
T2 sequence (Q8TBX8 1-421): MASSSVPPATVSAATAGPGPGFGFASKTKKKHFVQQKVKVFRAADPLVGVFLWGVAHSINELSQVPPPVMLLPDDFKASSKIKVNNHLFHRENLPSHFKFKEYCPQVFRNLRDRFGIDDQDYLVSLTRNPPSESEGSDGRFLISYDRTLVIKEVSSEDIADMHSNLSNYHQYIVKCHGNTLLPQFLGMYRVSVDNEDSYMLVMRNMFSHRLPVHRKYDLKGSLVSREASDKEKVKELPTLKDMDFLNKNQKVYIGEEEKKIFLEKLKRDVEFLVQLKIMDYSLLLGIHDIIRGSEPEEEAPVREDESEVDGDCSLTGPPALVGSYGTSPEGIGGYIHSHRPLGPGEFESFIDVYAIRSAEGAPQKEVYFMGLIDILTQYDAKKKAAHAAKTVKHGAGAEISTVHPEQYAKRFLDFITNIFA
From the text: as §1

T1 sequence (Q9H1R3 whole entry): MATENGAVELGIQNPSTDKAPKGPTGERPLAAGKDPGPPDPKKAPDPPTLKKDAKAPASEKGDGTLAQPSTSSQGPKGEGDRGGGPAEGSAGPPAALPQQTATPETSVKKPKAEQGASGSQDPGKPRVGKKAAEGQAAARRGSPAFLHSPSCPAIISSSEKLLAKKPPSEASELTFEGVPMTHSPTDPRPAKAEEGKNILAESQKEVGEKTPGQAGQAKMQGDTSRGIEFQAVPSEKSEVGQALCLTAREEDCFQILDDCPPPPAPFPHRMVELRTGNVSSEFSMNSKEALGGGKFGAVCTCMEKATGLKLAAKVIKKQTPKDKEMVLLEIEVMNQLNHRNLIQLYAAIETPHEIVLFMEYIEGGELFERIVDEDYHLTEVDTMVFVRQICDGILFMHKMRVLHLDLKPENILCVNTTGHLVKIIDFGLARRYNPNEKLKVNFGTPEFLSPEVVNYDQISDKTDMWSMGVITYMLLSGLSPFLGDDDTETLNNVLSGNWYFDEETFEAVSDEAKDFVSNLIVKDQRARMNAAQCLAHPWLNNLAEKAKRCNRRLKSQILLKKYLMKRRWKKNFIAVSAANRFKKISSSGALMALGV

| Compound | KINOMEscan: MYLK2 [1] | KINOMEscan: PIP5K2C [2] |
| --- | --- | --- |
| COc1cc(C(=O)N2CCC(N3CCN(C)CC3)CC2)ccc1Nc1ncc2c(n1)N1CCc3cccc(c31)C(=O)N2C [Compound 24] | 85 |  |
| CCOc1cc(C(=O)N2CCC(N3CCN(C)CC3)CC2)ccc1Nc1ncc2c(n1)N(C1CCCC1)c1ccccc1C(=O)N2C [Compound 26] | 100 | 93 |
| COc1cc(C(=O)N2CCC(N3CCN(C)CC3)CC2)ccc1Nc1ncc2c(n1)N(C1CCCC1)c1ccccc1C(=O)N2C [Compound 25, 11-cyclopentyl-2-((2-methoxy-4-(4-(4-methylpiperazin-1-yl)piperidine-1-carbonyl)phenyl)amino)-5-methyl-5H-benzo[e]pyrimido[5,4-b][1,4]diazepin-6(11H)-one] | 100 | 96 |
| COc1cc(C(=O)N2CCC(N3CCN(C)CC3)CC2)ccc1Nc1ncc2c(n1)N(C)c1ccccc1C(=O)N2C [15 (LRRK2-IN-1)] | 98 | 40 |
